In ChEMBL document CHEMBL1201862, “PubChem BioAssay data set” (2004):
Counter-ions that a name gives are not always drawn.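 Dose response: 5 concentrations. Exposure: 48 h. Format: 96-well plates. Endpoint: linear interpolation; highest concentration if not reached. GI50 marks 50% less growth.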 Active and inactive are the calls of the source. No stated cut-off is given here; in the data, active = GI50 up to about 1.1 µM and inactive = higher.

Experiments:
Assay in all cases: DTP human tumour cell line panel, 48 h
A549 = system: A549
MDA-MB-231 = system: MDA-MB-231
UACC-257 = system: UACC-257
IGROV-1 = system: IGROV-1
PC-3 = system: PC-3
MDA-N = system: MDA-N
HCT-15 = system: HCT-15
HCC 2998 = system: HCC 2998
EKVX = system: EKVX
ACHN = system: ACHN
NCI-H23 = system: NCI-H23
HOP-92 = system: HOP-92
MCF7 = system: MCF7
786-0 = system: 786-0
LOX IMVI = system: LOX IMVI
MOLT-4 = system: MOLT-4
KM12 = system: KM12
HOP-62 = system: HOP-62
OVCAR-3 = system: OVCAR-3
K562 = system: K562
M14 = system: M14
SK-MEL-5 = system: SK-MEL-5
NCI-H522 = system: NCI-H522
U-251 = system: U-251
OVCAR-5 = system: OVCAR-5
MDA-MB-435 = system: MDA-MB-435
Hs-578T = system: Hs-578T
OVCAR-4 = system: OVCAR-4
SF-268 = system: SF-268
SNB-19 = system: SNB-19
SK-OV-3 = system: SK-OV-3
A498 = system: A498
HL-60 = system: HL-60
HCT-116 = system: HCT-116
CAKI-1 = system: CAKI-1
SW-620 = system: SW-620
UO-31 = system: UO-31
SN12C = system: SN12C
NCI-H226 = system: NCI-H226
NCI/ADR-RES = system: NCI/ADR-RES
COLO 205 = system: COLO 205
SK-MEL-28 = system: SK-MEL-28
RXF 393 = system: RXF 393
CCRF-CEM = system: CCRF-CEM
DU-145 = system: DU-145
BT-549 = system: BT-549
OVCAR-8 = system: OVCAR-8
T47D = system: T47D
TK-10 = system: TK-10
SR = system: SR
HT-29 = system: HT-29
Malme-3M = system: Malme-3M
SF-295 = system: SF-295
NCI-H460 = system: NCI-H460
UACC-62 = system: UACC-62
SF-539 = system: SF-539
SNB-75 = system: SNB-75
RPMI-8226 = system: RPMI-8226
SK-MEL-2 = system: SK-MEL-2

Measured: GI50

COc1cc(C(CN)N(C)C)cc(OC)c1OC (stereo not drawn)
> 100 µM: HCT-15
inactive: A549 > 100 µM | MDA-MB-231 > 100 µM | UACC-257 > 100 µM | IGROV-1 > 100 µM | PC-3 > 100 µM | MDA-N > 100 µM | HCC 2998 > 100 µM | EKVX > 100 µM | ACHN > 100 µM | NCI-H23 > 100 µM | HOP-92 > 100 µM | MCF7 > 100 µM | 786-0 > 100 µM | LOX IMVI > 100 µM | MOLT-4 > 100 µM | KM12 > 100 µM | HOP-62 > 100 µM | OVCAR-3 > 100 µM | K562 > 100 µM | M14 > 100 µM | SK-MEL-5 > 100 µM | NCI-H522 > 100 µM | U-251 > 100 µM | OVCAR-5 > 100 µM | MDA-MB-435 > 100 µM | Hs-578T > 100 µM | OVCAR-4 > 100 µM | SF-268 > 100 µM | SNB-19 > 100 µM | SK-OV-3 > 100 µM | A498 > 100 µM | HL-60 > 100 µM | HCT-116 > 100 µM | CAKI-1 > 100 µM | SW-620 > 100 µM | UO-31 > 100 µM | SN12C 49.2 µM | NCI-H226 29.6 µM | NCI/ADR-RES > 100 µM | COLO 205 77.8 µM | SK-MEL-28 > 100 µM | RXF 393 > 100 µM | CCRF-CEM > 100 µM | DU-145 > 100 µM | BT-549 > 100 µM | OVCAR-8 > 100 µM | T47D > 100 µM | TK-10 > 100 µM | SR 8.49 µM | HT-29 > 100 µM | Malme-3M > 100 µM | SF-295 > 100 µM | NCI-H460 > 100 µM | UACC-62 > 100 µM | SF-539 > 100 µM

CN1C[C@H](C(=O)N[C@]2(C)O[C@@]3(O)[C@@H]4CCCN4C(=O)[C@H](Cc4ccccc4)N3C2=O)C=C2c3cccc4[nH]cc(c34)C[C@H]21 [ERGOTAMINE TARTRATE]
inactive: A549 37.8 µM | MDA-MB-231 19.2 µM | SNB-75 35.6 µM | UACC-257 13.9 µM | IGROV-1 20 µM | PC-3 18.3 µM | MDA-N 18.5 µM | EKVX 30.8 µM | ACHN 21.8 µM | NCI-H23 21.5 µM | HOP-92 16.9 µM | MCF7 20.7 µM | 786-0 20 µM | LOX IMVI 15.5 µM | MOLT-4 23.9 µM | KM12 28.8 µM | HOP-62 23.9 µM | OVCAR-3 18.3 µM | K562 25.4 µM | M14 22.3 µM | SK-MEL-5 14.2 µM | NCI-H522 16.3 µM | U-251 18.6 µM | OVCAR-5 20.2 µM | RPMI-8226 22.9 µM | MDA-MB-435 15.9 µM | Hs-578T 10.2 µM | OVCAR-4 20.7 µM | SF-268 13.2 µM | SNB-19 35.1 µM | SK-OV-3 29.9 µM | A498 15 µM | HL-60 19.2 µM | HCT-116 21 µM | CAKI-1 26.4 µM | SW-620 23.4 µM | UO-31 29.1 µM | SN12C 20 µM | NCI-H226 30.3 µM | NCI/ADR-RES 26.3 µM | COLO 205 16.5 µM | SK-MEL-2 17.4 µM | SK-MEL-28 17.1 µM | RXF 393 18 µM | CCRF-CEM 20 µM | DU-145 22.2 µM | BT-549 20.9 µM | OVCAR-8 19.3 µM | T47D 33 µM | TK-10 17.4 µM | SR 16.1 µM | HT-29 23.9 µM | Malme-3M 18.3 µM | SF-295 19.3 µM | UACC-62 16 µM | SF-539 12.1 µM
18.9 µM: HCT-15
